# According to patent US20080260896A1 (priority 2007, published 2008):
# Marks after values point to notes of the source that are not given here.
# Assay: Crude glycerin in finishing cattle diets: animal performance (weight, ADG, DMI, gain/feed)
# Assay type: in vivo, Angus-cross steers
# Conditions: for Weight / Average Daily Gain / Dry Matter Intake / Gain/Feed, ×100: 10% DM glycerin
# Description: All cattle were adapted on a common 4-step transition prior to initiation of the evaluation. Cattle were blocked by weight (4 blocks) with four pens per treatment (9-10 head/pen). […] Individual weights were collected at 28-day intervals throughout with steers terminated on three harvest dates (days on feed 116 to 153 days) based on weight and condition. Six monthly periods and cumulative (d 1-116 and 1-153) periods were analyzed.
# [1] = Day 57-84, DDGS:Soy Hulls 10:0 diet (Treatment 2)
# [2] = Day 57-84, DDGS:Soy Hulls 30:15 diet (Treatment 4)
# [3] = Day 57-84, main effect over both diets
# [4] = Day 85-116, DDGS:Soy Hulls 10:0 diet (Treatment 2)
# [5] = Day 85-116, DDGS:Soy Hulls 30:15 diet (Treatment 4)
# [6] = Day 85-116, main effect over both diets
# [7] = Day 117-132, DDGS:Soy Hulls 10:0 diet (Treatment 2)
# [8] = Day 117-132, DDGS:Soy Hulls 30:15 diet (Treatment 4)
# [9] = Day 117-132, main effect over both diets
# [10] = Day 133-153, DDGS:Soy Hulls 10:0 diet (Treatment 2)
# [11] = Day 133-153, DDGS:Soy Hulls 30:15 diet (Treatment 4)
# [12] = Day 133-153, main effect over both diets
# [13] = high co-product diets with glycerin
smiles,measurement,setting,value
"OCC(O)CO [crude glycerin, glycerin]",Weight,"Day 56, DDGS:Soy Hulls 10:0 diet (Treatment 2)",471.2 kg
same,Weight,"Day 56, DDGS:Soy Hulls 30:15 diet (Treatment 4)",470.5 kg
same,Weight,"Day 56, main effect over both diets",470.9 kg
same,Average Daily Gain,[1],1.29 kg/hd/d
same,Dry Matter Intake,[1],8.84^b kg/hd/d
same,"Gain/Feed, ×100",[1],14.64
same,Average Daily Gain,[2],1.25 kg/hd/d
same,Dry Matter Intake,[2],9.37^b kg/hd/d
same,"Gain/Feed, ×100",[2],13.36
same,Average Daily Gain,[3],1.27 kg/hd/d
same,Dry Matter Intake,[3],9.11 kg/hd/d
same,"Gain/Feed, ×100",[3],14.00
same,Weight,"Day 84, DDGS:Soy Hulls 10:0 diet (Treatment 2)",507.3 kg
same,Weight,"Day 84, DDGS:Soy Hulls 30:15 diet (Treatment 4)",505.4 kg
same,Weight,"Day 84, main effect over both diets",506.4 kg
same,Average Daily Gain,[4],0.97 kg/hd/d
same,Dry Matter Intake,[4],7.74^c kg/hd/d
same,"Gain/Feed, ×100",[4],12.47
same,Average Daily Gain,[5],0.93 kg/hd/d
same,Dry Matter Intake,[5],8.25^bc kg/hd/d
same,"Gain/Feed, ×100",[5],11.22
same,Average Daily Gain,[6],0.95 kg/hd/d
same,Dry Matter Intake,[6],8.00 kg/hd/d
same,"Gain/Feed, ×100",[6],11.84
same,Weight,"Day 116, DDGS:Soy Hulls 10:0 diet (Treatment 2)",538.3 kg
same,Weight,"Day 116, DDGS:Soy Hulls 30:15 diet (Treatment 4)",535.1 kg
same,Weight,"Day 116, main effect over both diets",536.7 kg
same,Average Daily Gain,[7],1.46 kg/hd/d
same,Dry Matter Intake,[7],8.67^ab kg/hd/d
same,"Gain/Feed, ×100",[7],17.25
same,Average Daily Gain,[8],1.26 kg/hd/d
same,Dry Matter Intake,[8],9.54^ab kg/hd/d
same,"Gain/Feed, ×100",[8],12.86
same,Average Daily Gain,[9],1.36 kg/hd/d
same,Dry Matter Intake,[9],9.11 kg/hd/d
same,"Gain/Feed, ×100",[9],15.06
same,Weight,"Day 132, DDGS:Soy Hulls 10:0 diet (Treatment 2)",552.8 kg
same,Weight,"Day 132, DDGS:Soy Hulls 30:15 diet (Treatment 4)",548.8 kg
same,Weight,"Day 132, main effect over both diets",550.8 kg
same,Average Daily Gain,[10],1.39^a kg/hd/d
same,Dry Matter Intake,[10],8.48 kg/hd/d
same,"Gain/Feed, ×100",[10],16.48^a
same,Average Daily Gain,[11],0.90^b kg/hd/d
same,Dry Matter Intake,[11],9.42 kg/hd/d
same,"Gain/Feed, ×100",[11],9.35^b
same,Average Daily Gain,[12],1.15 kg/hd/d
same,Dry Matter Intake,[12],8.95 kg/hd/d
same,"Gain/Feed, ×100",[12],12.92
same,Weight,"Day 153, DDGS:Soy Hulls 10:0 diet (Treatment 2)",570.5 kg
same,Weight,"Day 153, DDGS:Soy Hulls 30:15 diet (Treatment 4)",548.0 kg
same,Weight,"Day 153, main effect over both diets",559.3 kg
same,Cumulative ADG better,[13],2.5%
same,cumulative DMI lower,[13],11.8%
same,cumulative gain: feed better,[13],16.4%
same,Cumulative ADG greater,high-grain diets with glycerin,11.4%
same,cumulative DMI lesser,high-grain diets with glycerin,8.1%
same,cumulative gain: feed greater,high-grain diets with glycerin,21.9%
same,Cumulative ADG,steers fed diets containing 10% crude glycerin (main effect),1.24 kg/day
same,dry matter intake (DMI),"steers fed diets with added glycerin (main effect), cumulative",8.68 kg/day
